In this assay the target is T1, Calpain I (Homo sapiens, UniProt P07384).
T1 construct: made in house
T1 sequence (P07384 1-714): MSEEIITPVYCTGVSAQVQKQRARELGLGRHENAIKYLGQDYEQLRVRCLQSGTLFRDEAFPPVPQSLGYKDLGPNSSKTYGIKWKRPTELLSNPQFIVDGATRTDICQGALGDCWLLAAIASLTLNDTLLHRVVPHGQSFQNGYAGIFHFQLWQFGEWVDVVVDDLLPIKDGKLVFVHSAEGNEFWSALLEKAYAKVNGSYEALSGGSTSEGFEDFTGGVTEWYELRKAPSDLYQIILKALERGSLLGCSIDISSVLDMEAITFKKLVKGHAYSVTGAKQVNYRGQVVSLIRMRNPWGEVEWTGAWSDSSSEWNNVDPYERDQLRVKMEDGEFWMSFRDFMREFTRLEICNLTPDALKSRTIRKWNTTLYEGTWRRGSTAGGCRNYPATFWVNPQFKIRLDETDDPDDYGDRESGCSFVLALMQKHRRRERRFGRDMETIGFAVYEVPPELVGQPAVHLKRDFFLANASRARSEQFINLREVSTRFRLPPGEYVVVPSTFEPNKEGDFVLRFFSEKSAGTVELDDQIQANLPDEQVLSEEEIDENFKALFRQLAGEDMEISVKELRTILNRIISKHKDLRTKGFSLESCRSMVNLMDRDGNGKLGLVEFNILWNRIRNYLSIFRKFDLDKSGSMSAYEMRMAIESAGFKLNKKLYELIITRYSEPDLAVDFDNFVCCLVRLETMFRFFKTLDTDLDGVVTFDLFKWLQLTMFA
T1 sequence (P04632 1-268 partner): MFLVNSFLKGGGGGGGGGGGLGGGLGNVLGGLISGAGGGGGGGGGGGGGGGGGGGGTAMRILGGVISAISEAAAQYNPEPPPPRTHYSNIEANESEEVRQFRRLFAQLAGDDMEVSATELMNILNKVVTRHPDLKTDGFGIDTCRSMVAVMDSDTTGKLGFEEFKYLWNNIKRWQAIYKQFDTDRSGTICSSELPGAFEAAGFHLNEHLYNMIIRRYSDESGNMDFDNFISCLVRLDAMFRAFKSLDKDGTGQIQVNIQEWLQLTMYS
As to the kind of experiment: Inhibition and rate of inactivation of calpain I activity (Succ-Leu-Tyr-MNA substrate hydrolysis). The class given is biochemical. The settings on record: for kobs/I: apparent second order rate constant of inactivation, pseudo-first order conditions, compounds tested at 0.1 µM, mean of three or more single cuvette analyses. The procedure: Inhibition and Rate of Inactivation of Cysteine Protease Activity
To evaluate inhibitory activity, stock solutions (40 times concentrated) of each compound to be tested were prepared in 100% anhydrous DMSO and 5 µl of each inhibitor preparation were aliquoted into each of three wells of a 96 well plate. Calpain I, prepared by a modification of the method of W. J. Lee et al. (Biochem. Internatl. 22: 163-171 (1990)), was diluted into assay buffer (i.e., 50mM Tris, 50mM NaCl, 1mM EDTA, 1mM EGTA, and 5mM β-mercaptoethanol, pH 7.5 including 0.2mM Succ-Leu-Tyr-MNA) and 175 µl aliquoted into the same wells containing the independent inhibitor stocks as well as to positive control wells containing 5 µl DMSO, but no compound. To start the reaction, 20 µl of 50 mM CaCl2 in assay buffer was added to all wells of the plate, excepting three, which were used as background signal baseline controls. Substrate hydrolysis was monitored every 5 minutes for a total of 30 minutes. Substrate hydrolysis in the absence of inhibitor was linear for up to 15 minutes.
Inhibition of calpain I activity was calculated as the percent decrease in the rate of substrate hydrolysis in the presence of inhibitor (vi) relative to the rate in its absence (vo). Comparison between vo and vi was made within the linear range for substrate hydrolysis. […] Apparent second order rate constants were determined from analysis of reaction progress curves under pseudo-first order conditions. Each determination represents the mean of three or more independent single cuvette analyses continually monitored via a Perkin-Elmer LS50B spectrofluorimeter.
Values for kobs/I are given in Table I for compounds tested at 0.1 µM. [drawing 8]

SMILES strings stand for the structures.

Regarding `CC(C)C[C@H](NS(=O)(=O)N1CCOCC1)C(=O)N[C@@H](Cc1ccccc1)C(=O)COP(=O)(OCc1ccccc1)OCc1ccccc1` [Example 36, Dibenzyl (3S)-[3-[(N-morpholinylsulfonyl-L-leucyl)amino]-2-oxo-4-phenylbutyl] phosphate], the kobs/I worked out at 182000 M⁻¹ s⁻¹.
On to `CC(C)C[C@H](NC(=O)OCc1ccccc1)C(=O)N[C@@H](Cc1ccccc1)C(=O)COP1(=O)OCC(OCc2ccccc2)CO1` (some centres unmarked) [Example 47], for which the “% Inhib. @ 0.1 uM” value (0.1 uM compound, percent decrease in rate of substrate hydrolysis relative to no inhibitor) was determined as 47%.
As to `CC(C)C[C@H](NC(=O)OC(C)(C)C)C(=O)N[C@@H](Cc1ccccc1)C(=O)COP(=O)(OCc1ccccc1)OCc1ccccc1` [Example 35, Dibenzyl (3S)-[3-[(N-t-Butoxycarbonyl-L-leucyl)amino]-2-oxo-4-phenylbutyl]phosphate], the kobs/I came out at 242000 M⁻¹ s⁻¹.
Same read-out and setting: as for `CC(C)C[C@H](NC(=O)C12OC(CO)C(O)C1OC(C)(C)O2)C(=O)N[C@@H](Cc1ccccc1)C(=O)COP(=O)(OCc1ccccc1)OCc1ccccc1` (stereo partly drawn) [Example 38, Dibenzyl (3S)-[3-[(N-monoisopropylidine-2-keto-L-gulonyl-L-leucyl)amino]-2-oxo-4-phenylbutyl] phosphate)], the figure is 116000 M⁻¹ s⁻¹; as for `CC(C)CC(NC(=O)C12OC3COC(C)(C)OC3C1OC(C)(C)O2)C(=O)NC(Cc1ccccc1)C(=O)COP(=O)(OCc1ccccc1)OCc1ccccc1` [Example 37, Dibenzyl (3S)-[3-[(N-diisopropylidine-2-keto-L-gulonyl-L-leucyl)amino]-2-oxo-4-phenylbutyl] phosphate], 113000 M⁻¹ s⁻¹.

Source of the values: patent EP0871454B1, “PHOSPHOROUS-CONTAINING CYSTEINE AND SERINE PROTEASE INHIBITORS” (CEPHALON, INC., priority 1995, dated 1997).
